Values quoted from earlier work, collected in US5143902A, “Glucagon analogs with ASP^9 replacements or deletions” (The Rockefeller University, priority 1991, dated 1992).

Tests used:
Conditions in all cases: background
glucagon receptor = test system: glucagon receptor
[1] = test system: another binding system in the hepatocyte membrane
adenylate cyclase = test system: adenylate cyclase

Nα- trinitrophenyl [12-homoarginine] glucagon
binding to the glucagon receptor (glucagon receptor): does bind to the glucagon receptor | activation of another binding system producing inositol trisphosphate and calcium ions [1]: activates another binding system in the hepatocyte membrane leading to the production of inositol trisphosphate and calcium ions | activation of adenylate cyclase (adenylate cyclase): without significant activation of adenylate cyclase
